Test results published in PMC3089467 (Nucleic Acids Research, 2011).

Target: T1, HhaI DNA cytosine-5 methyltransferase (M.HhaI) (Haemophilus parahaemolyticus, UniProt P05102)
T1 sequence (P05102 1-327): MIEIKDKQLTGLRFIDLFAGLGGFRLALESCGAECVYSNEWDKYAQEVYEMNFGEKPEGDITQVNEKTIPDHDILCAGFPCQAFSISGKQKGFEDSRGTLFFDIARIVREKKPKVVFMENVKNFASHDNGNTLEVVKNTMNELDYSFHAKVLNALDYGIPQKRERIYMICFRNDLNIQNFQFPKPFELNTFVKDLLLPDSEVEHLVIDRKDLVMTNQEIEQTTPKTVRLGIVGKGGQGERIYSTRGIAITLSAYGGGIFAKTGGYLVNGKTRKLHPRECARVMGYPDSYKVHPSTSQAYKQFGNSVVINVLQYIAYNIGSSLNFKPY
Test: stopped-flow absorbance, ternary complex with DNA
Assay type: binding
Settings: 100 µM AdoHcy; cognate GCGC/GMGC duplex; pH 7.4, 25 °C

`Nc1ncnc2c1ncn2[C@@H]1O[C@H](CSCC[C@H](N)C(=O)O)[C@@H](O)[C@H]1O` [AdoHcy] was tested, and the “stopped-flow absorbance, ternary complex with DNA” value was “The remaining signal is regained upon addition of AdoHcy to the preformed M.HhaI–DNA complex”.
